{"source": "patent US20220331348A1", "about": "“METHOD OF PREPARING PENTACYCLIC TRITERPENOID SAPONINS AND DRUG COMPOSITION” (CHINA PHARMACEUTICAL UNIVERSITY, priority 2019, published 2022)", "key": {"[1]": {"tested_on": "TNBS modeled Crohn's disease model mice", "assay": "2,4,6-trinitrobenzene sulfonic acid (TNBS) modeled Crohn's disease model mice", "assay_type": "in vivo, mouse", "procedure": "C57BL/6 male mice with 6-8 weeks old were selected and randomly divided into a control group, a mode group, a treatment group and a positive control group. Expect for the control group, after the mice in the rest groups anesthetized with isoflurane, hoses were carefully inserted into colons of the mice from anuses, and […] of 1.5% 2,4,6-trinitrobenzene sulfonic acid (TNBS) was slowly injected. Before the hoses were pulled out, the mice were placed upside down for 1 min. First intragastric administration was conducted at the day of enema treatment, the mice in the control group and the model group were orally administered with carboxymethyl cellulose sodium as a placebo, the mice in the treatment group were orally administered with the ziyuglycoside II (purchased from Shanghai Boka Chemistry Technology Co., Ltd) (with a dosage of 5 mg/kg), and the mice in the positive drug group were orally administered with 5-aminosalicylic acid as a clinical drug (5-ASA, purchased from Shanghai Sangon Biological Engineering Co., Ltd) (with a dosage of 100 mg/kg). Administration was continuously conducted for 7 days. In the administration process, the states of the mice were observed every day, and weight changes of the mice were recorded.\nDifferences in weight change of the mice in various groups were compared, from which, ziyuglycoside II has the treatment effect on the 2, 4, 6-trinitrobenzene sulfonic acid (TNBS) modeled Crohn's disease model mice.\nThe above mice were sacrificed by cervical dislocation at day 8, colon tissues were harvested, lengths of the colon tissues were measured for statistical summary, and differences in colon length of various groups were compared, from which, the ziyuglycoside II has significant treatment effect on the Crohn's disease model mice. […] 10 mg of proximal rectum segments of the colon tissues of the above mice were selected, PBS was added for homogenization, and centrifugation was conducted for taking a supernate. The supernate was subjected to ELISA detection, and protein quantification was conducted for inflammatory factors TNF- and IL-1. […] Myeloperoxidase (MPO) is an enzyme specific to neutrophils, and the amount of the neutrophils in the intestinal tracts may be reflected by detecting the MPO level. 5 mg of proximal rectum segments of the colon tissues of the above mice were selected, PBS was added for homogenization, and the content of the MPO in a homogenate was detected with a MPO kit (purchased from Nanjing Jiancheng Bioengineering Institute). […] Therefore, the ziyuglycoside II is expected to be useful for preparing the drug for preventing or treating the inflammatory bowel diseases such as the Crohn's disease."}, "[2]": {"tested_on": "CCl4-induced hepatic fibrosis mice", "assay": "CCl4-induced hepatic fibrosis mice", "assay_type": "in vivo, mouse", "procedure": "Animal: 32 C57BL/6J male mice of SPF level with 25 g were purchased from Beijing Vital River Laboratory Animal Technology Co., Ltd. All the animals maintained 12 h alternative circadian rhythm with free access to food.\nReagent: the ginsenoside Ro was purchased from Shanghai Boka Chemistry Technology Co., Ltd; CCl4 was purchased from sigma Company; and sunflower seed oil was purchased from Nanjing Yuanye Biotechnology Co., Ltd.\nThe mice were randomly divided into 4 groups based on weights: a blank control group (CTL), a model group (CCl4), a ginsenoside Ro low-dosage group (Low) (5 mg/kg) and a ginsenoside Ro high-dosage group (High) (10 mg/kg), totally 4 groups (with 8 mice each).\nA modeling mode was that the mice were given with a CCl4-contained sunflower seed oil solution (with a CCl4 content of 25%, v/v) in a dosage of 2mL/kg by intraperitoneal injection, and the mice in the control group were injected with a corresponding dosage of the sunflower seed oil solution two times per week. From experiment day 1 onward, the mice in the control group were given with a CMC-Na solution with the mass fraction of 0.5% intragastrically every day and with sunflower seed oil two times per week by intraperitoneal injection; the mice in the model group were given with the CMC-Na solution with the mass fraction of 0.5% intragastrically every day and with the CCl4-contained sunflower seed oil solution two times per week by intraperitoneal injection; the mice in the ginsenoside Ro low-dosage group (Low) were given with 5 mg/kg of the ginsenoside Ro intragastrically every day and with a CCl4 solution two times per week by intraperitoneal injection; and the mice in the ginsenoside Ro high-dosage group (High) were given with 10 mg/kg of the ginsenoside Ro intragastrically every day and with the CCl4-contained sunflower seed oil solution two times per week by intraperitoneal injection. Administration was conducted for a total of 4 weeks.\nThe mice were deprived of food but not water for 12 h in advance; and the next morning, blood was taken from eyeballs, the mice were sacrificed, and livers were harvested. Right liver lobule tissues were fixed with 4% paraformaldehyde for HE stained slicing. The rest liver tissues were divided into 3 parts, which were snap-frozen in liquid nitrogen for subsequent detection of other indexes.\nWhole blood was left to still standing for 2 h at room temperature, centrifugation was conducted for 15 min at 3000 rpm, and a serum was collected and sent to Pathologic Department of Hospital of Integrated Traditional Chinese and Western Medicine in Jiangsu Province for determination of levels of glutamic oxalacetic transaminase (AST) and glutamic-pyruvic transaminase (ALT) in the serum with a full-automatic biochemical analyzer.\nPretreated tissues were sent to Google Biotechnology Co., Ltd for preparing HE stained slices.\n6. Extraction of Liver Tissue RNA and q-PCR Detection Liver tissues preserved at −80° C. were put in the liquid nitrogen, about 10 mg of the liver tissues were quickly dissected out, about 500 μL of a precooled Trizol reagent was added, the tissues were homogenized with the homogenizer and then left to lyse on the ice for 15 min, 100 μL of chloroform was added for vigorous shaking for 15 s, and a product was put on the ice for 10 min and then was subjected to centrifugation for 15 min at 4° C. and 12000 rpm. An upper aqueous phase was transferred to a clean 1.5 mL EP tube, […] of isopropanol was added for RNA precipitation, the EP tube was put on the ice for 10 min and then was subjected to centrifugation for 10 min at 4° C. and 12000 rpm. The supernate was discarded, precipitates were washed one time with 75% ethyl alcohol, a supernate was discarded after centrifugation, and precipitates of\nRNA dissolved with the water were treated with 40 mL of DEPC. […]"}, "[3]": {"conditions": "5 mg/kg orally, vs model group (FIG. 14 A)"}, "[4]": {"conditions": "CCl4-induced hepatic fibrosis mice, 5 mg/Kg, n = 8"}}, "data": [{"smiles": "C[C@@H]1CC[C@]2(C(=O)O)CC[C@]3(C)C(=CC[C@@H]4[C@@]5(C)CC[C@H](O[C@@H]6OC[C@H](O)[C@H](O)[C@H]6O)C(C)(C)[C@@H]5CC[C@]43C)[C@@H]2[C@]1(C)O", "note": "[(XIII), ziyuglycoside II]", "values": [{"measurement": "content of the MPO in colon tissues", "setting": "[1]; 5 mg/kg (FIG. 14 B)", "result": "significantly lowered"}, {"measurement": "drop scope of weight loss", "setting": "[1]; 5 mg/kg orally, 7 days, vs model group (FIG. 13 A)", "result": "obviously lower than that of the model group"}, {"measurement": "colon lengths", "setting": "[1]; 5 mg/kg orally, day 8, vs model group (FIG. 13 B)", "result": "significantly larger than those of the model group"}, {"measurement": "expression level of inflammatory factor IL-1 in colon tissue (ELISA)", "setting": "[1]; [3]", "result": "significantly lower than those of the model group"}, {"measurement": "expression level of inflammatory factor TNF- in colon tissue (ELISA)", "setting": "[1]; [3]", "result": "significantly lower than those of the model group"}, {"measurement": "colon length of the treatment group compared with the control group", "setting": "[1]; dose not given", "result": "nearly no difference"}, {"measurement": "expression level of inflammatory factor IL-1β", "setting": "[1]; dose not given, vs model group", "result": "significantly lower than those of the model group"}, {"measurement": "expression level of inflammatory factor TNF-α", "setting": "[1]; dose not given, vs model group", "result": "significantly lower than those of the model group"}, {"measurement": "MMP2 gene expression", "setting": "[2]; [4]", "result": "7.38 ± 3.48 fold induction compared with the control group"}, {"measurement": "TGF-β gene expression", "setting": "[2]; [4]", "result": "3.03 ± 0.76 fold induction compared with the control group"}, {"measurement": "collagen 1 gene expression", "setting": "[2]; [4]", "result": "8.16 ± 3.37 fold induction compared with the control group"}, {"measurement": "hepatic fibrosis induced by CCl4", "setting": "[2]; CCl4 mice, summary in words", "result": "effectively inhibit"}]}]}
